What all share (type): in vitro ADME
One data set addresses T1, CYP2C19 (Homo sapiens, UniProt P33261).
T1 construct: 0.5 mg protein/mL of liver microsomes (HLM Xenotech); tissue Xenotech; host or cells: liver microsomes
Briefly: CYP inhibition, liver microsomes, substrate cocktail. The method, then:
(§1) Cytochrome P450 (CYP) are a family of enzymes which play a major role in the metabolism of drugs. Assessment of the potential of a compound to inhibit a specific cytochrome P450 enzyme is important as co-administration of compounds may result in one or both inhibiting the other's metabolism.
(§2) All the incubations were performed in 250 µL reaction medium containing sodium/potassium phosphate buffer 50mM, pH 7.4, 3mM MgCl2, an NADPH regeneration system 1mM NADP, 10mM glucose 6-phosphate, and 1 U/mL glucose 6-phosphate dehydrogenase, 0.5 mg protein/mL of liver microsomes (HLM Xenotech), and a substrate cocktail composed of phenacetin for CYP1A2, diclofenac for CYP2C9, S-mephenytoin for CYP2C19, bufuralol for CYP2D6, midazolam for CYP3A4, and testosterone for CYP3A4. Final concentrations of substrate in the reaction medium were: 10 µM phenacetin, 10 µM diclofenac, 5 µM bufuralol, 100µM S-Mephenytoin, 5 µM midazolam, and 50 µM testosterone. Following incubation at 37°C for 25 min, the reactions were terminated by the addition of ice-cold acetonitrile and the plate was centrifuged at 4000 g for 60 min at 4°C.
(§3) Supernatant was taken and analyzed by UPLC/MS/MS for sample quantification The chromatographic equipment employed was an UPLC QSM Waters Acquity. Stationary phase: Reverse phase Acquity UPLC® BEHC18 1,7 µm (2.1 mm x 100 mm) (Waters) Mobile phase: 0.1% Formic acid water/0.1% formic acid in acetonitrile. Flow: 0.8 ml/min. Gradient: Table 10: UPLC gradient / CYP inhibition assay
(In general: Liver microsomes are a subcellular fraction often used to study metabolism.)

The next data set concerns the target T2, CYP3A4 (Homo sapiens, UniProt P08684).
T2 construct: 0.5 mg protein/mL of liver microsomes (HLM Xenotech); tissue Xenotech; host or cells: liver microsomes
The data set is described as above. As to conditions: for inhibition at 25 min, 10 µM: human, liver microsomes. The method, then: as §1, §2, §3

A further data set has as its target T3, CYP1A2 (Homo sapiens, UniProt P05177).
T3 construct: 0.5 mg protein/mL of liver microsomes (HLM Xenotech); tissue Xenotech; host or cells: liver microsomes
T3 sequence (P05177 1-516): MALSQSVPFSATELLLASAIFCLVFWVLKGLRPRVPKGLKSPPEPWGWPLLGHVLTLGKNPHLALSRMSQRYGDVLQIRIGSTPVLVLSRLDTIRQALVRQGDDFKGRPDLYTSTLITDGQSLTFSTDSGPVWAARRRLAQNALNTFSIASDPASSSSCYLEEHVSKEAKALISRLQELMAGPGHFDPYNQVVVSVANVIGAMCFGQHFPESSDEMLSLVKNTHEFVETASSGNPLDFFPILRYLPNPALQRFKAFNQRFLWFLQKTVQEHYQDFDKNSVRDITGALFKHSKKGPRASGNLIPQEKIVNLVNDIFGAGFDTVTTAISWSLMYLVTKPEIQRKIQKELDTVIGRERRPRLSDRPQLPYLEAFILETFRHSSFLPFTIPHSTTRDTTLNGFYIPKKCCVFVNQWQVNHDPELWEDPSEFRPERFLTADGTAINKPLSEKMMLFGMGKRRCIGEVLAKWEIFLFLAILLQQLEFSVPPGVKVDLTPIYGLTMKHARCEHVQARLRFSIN
The description is as above. The method, then: as §1, §2, §3

A further data set has as its target T4, CYP2D6 (Homo sapiens, UniProt P10635).
T4 construct: 0.5 mg protein/mL of liver microsomes (HLM Xenotech); tissue Xenotech; host or cells: liver microsomes
The description is as above. The method, then:
as §1, §2, §3

A short description of data set [1]: metabolic stability, dog microsomes. As to conditions: Dog microsomes. As for the experimental part:
Microsomes from Tebu-bio Xenotech were employed in the assay, having a content of 20 mg/ml of protein. The following quantities were added to each well of a 96-well microplate. Table 6: Metabolic stability assay.
Plates were incubated at 37°C and 75 µL samples were taken at 0, 10, 20, 40 and 60 minutes.
Samples were transferred to a microplate and 75 µl Acetonitrile + IS(Rolipram) were added for inactivating the microsomes, and 30 µl of H2O with 0.5% formic acid for improving the chromatographic conditions and kept at 4°C. When all the samples were taken the plate was centrifuged at […] for 30 min at 15°C. Stationary phase: ACQUITY BEH C18 1.7µm 2.1x50mm (Waters) Mobile phase: A: 0.1% formic; B: acetonitrile+0.1% formic acid Gradient: Table 6: UPLC gradient / Metabolic stability assay
Metabolic stability was calculated from the logarithm of the remaining compound at each of the times evaluated.

Data set [2] can be described thus: plasma protein binding, Rapid Equilibrium Dialysis (RED), mouse. The settings on record: 4h at 37°C, (*) low recovery for (If). As for the experimental part:
(§4) Plasma from Seralab was employed in the assay and was carried out by employing Rapid Equilibrium Dialysis (RED) from Thermo Scientific.
(§5) The compounds were dissolved at 5 µM in plasma and added to the corresponding insert of the RED device. Dialysis buffer was added to the corresponding insert of the RED device. Plate was incubated for 4h at 37°C.
(§6) After the incubation period 50 µL aliquots of each chamber were transferred to empty vials. 50 µL of dialysis buffer were added to the plasma samples and 50 µL of plasma were added to the buffer samples. 300 µL of acetonitrile were added to all the samples and centrifuged at 4000 rpm 100 µL aliquots of the supernatants were transferred to a LC analysis plate. Samples were analyzed in a UPLC/MS/MS. Stationary phase: Acquity UPLC® BEHC18 1,7 µm (2.1 mm x 50 mm) (Waters). Gradient: A (H2O + 0.1% Formic acid); B (ACN + 0.1% Formic acid); Flow: 0.6mL/min Table 8: UPLC gradient / Protein binding assay
(§7) The chromatographic equipment employed was an ACQUITY UPLC / Xevo TQD System. Compound concentrations were calculated from the MS peak areas. Table 9: Plasma protein binding of the compounds of formula (I) in rat, mice, dogs and humans / (*) low recovery
On the technique in general: Equilibrium dialysis compares concentrations on both sides of a semipermeable membrane.

Another data set relates to Plasma protein. The description is as above. As to conditions: 5 µM, 4h at 37°C, (*) low recovery for (If). As for the experimental part: as §4, §5, §6, §7

A value given as a limit tells only on which side of the number the result lay.

T2 sequence (P08684 whole entry): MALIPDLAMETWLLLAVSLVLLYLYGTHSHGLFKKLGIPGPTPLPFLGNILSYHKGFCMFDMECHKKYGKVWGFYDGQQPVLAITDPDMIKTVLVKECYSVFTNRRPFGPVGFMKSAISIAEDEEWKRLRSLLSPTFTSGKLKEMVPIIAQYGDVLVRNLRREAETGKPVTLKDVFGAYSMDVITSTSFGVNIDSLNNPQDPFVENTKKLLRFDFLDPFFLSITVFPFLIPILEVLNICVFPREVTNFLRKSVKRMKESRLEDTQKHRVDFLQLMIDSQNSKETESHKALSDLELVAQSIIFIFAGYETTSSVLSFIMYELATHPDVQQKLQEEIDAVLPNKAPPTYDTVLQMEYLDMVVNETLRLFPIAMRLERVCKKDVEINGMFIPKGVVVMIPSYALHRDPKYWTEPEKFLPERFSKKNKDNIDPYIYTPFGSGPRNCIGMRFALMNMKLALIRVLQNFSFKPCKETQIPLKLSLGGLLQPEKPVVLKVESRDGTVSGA
T4 sequence (P10635 whole entry): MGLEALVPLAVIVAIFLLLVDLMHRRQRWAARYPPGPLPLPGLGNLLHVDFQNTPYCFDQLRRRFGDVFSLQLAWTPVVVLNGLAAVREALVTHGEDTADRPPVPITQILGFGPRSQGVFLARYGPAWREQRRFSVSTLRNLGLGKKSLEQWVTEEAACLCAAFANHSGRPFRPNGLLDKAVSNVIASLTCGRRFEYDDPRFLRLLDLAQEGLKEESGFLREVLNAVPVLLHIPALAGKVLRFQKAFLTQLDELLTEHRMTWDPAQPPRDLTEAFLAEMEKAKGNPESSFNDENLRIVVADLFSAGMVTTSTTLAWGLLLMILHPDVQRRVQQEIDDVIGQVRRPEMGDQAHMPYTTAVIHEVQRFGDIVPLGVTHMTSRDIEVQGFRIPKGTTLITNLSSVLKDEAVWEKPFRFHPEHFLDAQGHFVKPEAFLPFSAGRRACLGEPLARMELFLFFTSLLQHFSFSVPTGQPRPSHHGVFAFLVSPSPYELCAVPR
T1 sequence (P33261 whole entry): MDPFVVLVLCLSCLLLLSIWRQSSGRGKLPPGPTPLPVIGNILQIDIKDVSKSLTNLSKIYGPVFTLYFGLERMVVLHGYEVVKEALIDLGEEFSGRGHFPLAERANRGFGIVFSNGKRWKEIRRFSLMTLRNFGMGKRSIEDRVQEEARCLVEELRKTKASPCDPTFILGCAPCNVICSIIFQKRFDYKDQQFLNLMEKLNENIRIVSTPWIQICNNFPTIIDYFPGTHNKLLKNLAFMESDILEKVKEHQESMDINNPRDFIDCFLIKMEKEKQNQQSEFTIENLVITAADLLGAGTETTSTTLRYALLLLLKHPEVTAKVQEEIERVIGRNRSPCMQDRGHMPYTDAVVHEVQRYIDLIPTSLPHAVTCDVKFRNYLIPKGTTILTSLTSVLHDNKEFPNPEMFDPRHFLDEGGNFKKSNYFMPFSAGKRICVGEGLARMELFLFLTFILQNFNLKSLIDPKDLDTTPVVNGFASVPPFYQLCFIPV

Take `O=C(Cc1ccc2c(c1)OCCO2)Nc1nc(-c2ccc3c(c2)CCC(=O)N3)cs1` [Compound (If)]: the IC50 was over 10 µM against CYP2C19 (CYP2C19, substrate S-mephenytoin); over 10 µM on CYP3A4 (CYP3A4 (Midazolam)); over 10 µM on CYP3A4 (CYP3A4 (Testosterone), 25 min); over 10 µM against CYP1A2 (CYP1A2, substrate phenacetin); over 10 µM at CYP2D6 (CYP2D6, substrate bufuralol). Further, the inhibition at 25 min, 10 µM was -18.8% against CYP2C19 (human, liver microsomes, pH 7.4, CYP2C19, 10µM, substrate S-mephenytoin); -9.4% against CYP3A4 (pH 7.4, CYP3A4 (Midazolam)); -12.8% at CYP3A4 (pH 7.4, CYP3A4 (Testosterone)); -5.3% at CYP1A2 (human, liver microsomes, pH 7.4, CYP1A2, 10µM, substrate phenacetin); -2.9% against CYP2D6 (human, liver microsomes, pH 7.4, CYP2D6, 10µM, substrate bufuralol). Besides, in data set [1], the half-life was 5.42 h. In data set [1], this molecule yielded a microsomal CLint of 2.17 µL/min/mg. Also, the “% remanent (*)” value in data set [1] ((*) sampling time 60 min) was 89.2%. The molecule also gave a fraction unbound at 4 h, 5 µM in data set [2] of 0.0046. In the data set on Plasma protein, the Unbound fraction came out at 0.46%.

As usually defined, the IC50 is the point on the concentration scale where inhibition reaches its midpoint. The term inhibition denotes the drop in the measured response relative to a control, in per cent. The half-life is the time needed for the level to fall by half in the phase considered. Lower therefore signals rapid decline. For orientation: microsomal CLint means the rate of metabolic loss divided by the concentration. The low end stands for slow turnover, the high end for rapid turnover. As a reminder, the fraction unbound is free concentration divided by total concentration. Low values mean little free substance, high ones much free substance.

The values above are taken from patent EP4420661B1, “SMALL MOLECULES TARGETING GLYCOPROTEIN VI AS ANTIPLATELET AGENTS FOR USE IN THE PREVENTION AND/OR TREATMENT OF THROMBOSIS AND ASSOCIATED PATHOLOGIES” (Universidade de Santiago de Compostela, priority 2023, dated 2024).
